Source: ChEMBL document CHEMBL5506050, “Discovery of Oral AMP-Activated Protein Kinase Activators for Treating Hyperlipidemia” (J Med Chem, 2024)
Activity calls are given as the source filed them. No cut-off for these calls is given here.

Legend:
[1] = tested on: Mus musculus; assay: Effect on Aacas mRNA level in liver of diet-induced obese C57BL/6 mouse model harboring AMPKalpha LS-/- at 200 mg/kg, po for 4 weeks by GO analysis; assay type: functional, organism-based
[2] = tested on: Rhesus monkey; assay: Lipid lowering effect in Rhesus monkey assessed as decrease in blood LDL-C level at 35 mg/kg, NG qd treated for 35 days followed by drug washout for 14 days relative to control; assay type: functional, Macaca mulatta; parameters: scale not given: the % may be the effect or the level left; settings: time 35 day
[3] = biological target: AMP-activated protein kinase (AMPK) alpha-1/beta-1/gamma-1 (Homo sapiens) (UniProt P54619+Q9Y478+Q13131); assay: Activation of AMPK alpha1/AMPKbeta1/AMPKgamma1 (unknown origin) using SAMS peptide as substrate assessed as relative enzyme activity at 10 uM incubated for 20 mins in presence of [gamma-32P]ATP by scintillation counter analysis; assay type: protein-complex assay; settings: filed as activator
[4] = tested on: Mus musculus; assay: Effect on Pcsk9 mRNA level in liver of diet-induced obese C57BL/6 mouse model harboring AMPKalpha LS-/- at 200 mg/kg, po for 4 weeks by GO analysis; assay type: functional, organism-based
[5] = tested on: Syrian golden hamster; assay: Lipid lowering effect on high-fat diet-fed golden hamster assessed as decrease in serum TC level administered orally once daily via gavage measured after 4 weeks; assay type: functional, organism-based; settings: Mesocricetus auratus, dose 50-200 mg/kg, route po
[6] = tested on: Rhesus monkey; assay: Lipid lowering effect in Rhesus monkey assessed as decrease in serum LDL-C level at 35 mg/kg, NG qd measured after 21 days relative to control; assay type: functional, Macaca mulatta; parameters: scale not given: the % may be the effect or the level left; settings: time 21 day
[7] = Stability in human Caco-2 cells assessed as compound remaining at 10 ug/ml measured after 3 hrs by LC-MS/MS analysis; assay type: ADME, cell-based; settings: at 10 µg/mL, read-out: Stability
[8] = tested on: Mus musculus; assay: Downregulation of Syvn1 mRNA level in liver of high-fat diet-fed C57BL/6 mouse model at 200 mg/kg, po for 4 weeks by GO analysis; assay type: functional, organism-based
[9] = tested on: Mus musculus; assay: Effect on Mogat1 mRNA level in liver of diet-induced obese C57BL/6 mouse model harboring AMPKalpha LS-/- at 200 mg/kg, po for 4 weeks by GO analysis; assay type: functional, organism-based
[10] = tested on: Mus musculus; assay: Effect on Dhcr7 mRNA level in liver of diet-induced obese C57BL/6 mouse model harboring AMPKalpha LS-/- at 200 mg/kg, po for 4 weeks by GO analysis; assay type: functional, organism-based
[11] = tested on: Syrian golden hamster; assay: Lipid lowering effect on high-fat diet-fed golden hamster assessed as decrease in serum LDL-C level at 100 mg/kg, po qd administered via gavage measured after 4 weeks relative to control; assay type: functional, Mesocricetus auratus; parameters: scale not given: the % may be the effect or the level left
[12] = tested on: Mus musculus; assay: Downregulation of Pcsk9 mRNA level in liver of high-fat diet-fed C57BL/6 mouse model at 200 mg/kg, po for 4 weeks by GO analysis; assay type: functional, organism-based
[13] = tested on: Mus musculus; assay: Downregulation of Hspa5 mRNA level in liver of high-fat diet-fed C57BL/6 mouse model at 200 mg/kg, po for 4 weeks by GO analysis; assay type: functional, organism-based
[14] = Stability in human plasma assessed as compound remaining at 1 to 5 uM measured after 30 mins by LC-MS/MS analysis; assay type: ADME, cell-free; settings: dose 1-5 µM, read-out: Stability
[15] = tested on: Mus musculus; assay: Upregulation of Gadd45a mRNA level in liver of high-fat diet-fed C57BL/6 mouse model at 200 mg/kg, po for 4 weeks by GO analysis; assay type: functional, organism-based
[16] = Tmax in male Rhesus monkey at 70 mg/kg, po or 7 mg/kg, iv measured for 36 hrs by LC-tandem MS analysis; assay type: ADME, organism-based, Macaca mulatta; settings: in vivo
[17] = tested on: Mus musculus; assay: Effect on Lepr mRNA level in liver of diet-induced obese C57BL/6 mouse model harboring AMPKalpha LS-/- at 200 mg/kg, po for 4 weeks by GO analysis; assay type: functional, organism-based
[18] = tested on: Syrian golden hamster; assay: Lipid lowering effect on high-fat diet-fed golden hamster assessed as decrease in TG level in liver at 100 to 200 mg/kg, po qd administered via gavage measured after 4 weeks; assay type: functional, organism-based; settings: Mesocricetus auratus, dose 100-200 mg/kg
[19] = tested on: Syrian golden hamster; assay: Effect on adipose tissue weight in high-fat diet-fed golden hamster at 50 to 200 mg/kg, po qd administered via gavage measured after 4 weeks; assay type: functional, organism-based; settings: Mesocricetus auratus, dose 50-200 mg/kg
[20] = tested on: Syrian golden hamster; assay: Lipid lowering effect on high-fat diet-fed golden hamster assessed as decrease in serum LDL-C level at 6 mg/kg, po qd administered via gavage measured after 4 weeks relative to control; assay type: functional, Mesocricetus auratus; parameters: scale not given: the % may be the effect or the level left
[21] = species: Homo sapiens; assay: Downregulation of serum TC level in human at 2000 mg bid for 7 days; assay type: functional; settings: time 7.0 day
[22] = tested on: Mus musculus; assay: Effect on Mvd mRNA level in liver of diet-induced obese C57BL/6 mouse model harboring AMPKalpha LS-/- at 200 mg/kg, po for 4 weeks by GO analysis; assay type: functional, organism-based
[23] = tested on: Rhesus monkey; assay: Lipid lowering effect in Rhesus monkey assessed as decrease in serum LDL-C level at 35 mg/kg, NG qd treated for 35 days followed by drug washout for 14 days relative to control; assay type: functional, Macaca mulatta; parameters: scale not given: the % may be the effect or the level left; settings: time 35 day
[24] = tested on: Rhesus monkey; assay: Lipid lowering effect in Rhesus monkey assessed as LDL-C level at 35 mg/kg, NG qd treated for 35 days followed by drug washout for 14 days; assay type: functional, Macaca mulatta; settings: time 35 day
[25] = tested on: Mus musculus; assay: Effect on Ccl2 mRNA level in liver of diet-induced obese C57BL/6 mouse model harboring AMPKalpha LS-/- at 200 mg/kg, po for 4 weeks by GO analysis; assay type: functional, organism-based
[26] = Acute toxicity in golden hamster assessed as intense toxic response at 20 g/Kg, po measured for 14 days; assay type: organism-based, Mesocricetus auratus; settings: in vivo, 20000 mg/kg, 336 h, time 14 day
[27] = Acute toxicity in golden hamster assessed as animal survival at 20 g/Kg, po measured for 14 days; assay type: organism-based, Mesocricetus auratus; settings: in vivo, 20000 mg/kg, 336 h, time 14 day
[28] = tested on: Syrian golden hamster; assay: Effect on liver weight in high-fat diet-fed golden hamster at 50 to 200 mg/kg, po qd administered via gavage measured after 4 weeks; assay type: functional, organism-based; settings: Mesocricetus auratus, dose 50-200 mg/kg
[29] = tested on: Mus musculus; assay: Effect on Hspa5 mRNA level in liver of diet-induced obese C57BL/6 mouse model harboring AMPKalpha LS-/- at 200 mg/kg, po for 4 weeks by GO analysis; assay type: functional, organism-based
[30] = tested on: Syrian golden hamster; assay: Lipid lowering effect on high-fat diet-fed golden hamster assessed as decrease in TC level in liver at 100 to 200 mg/kg, po qd administered via gavage measured after 4 weeks; assay type: functional, organism-based; settings: Mesocricetus auratus, dose 100-200 mg/kg
[31] = tested on: Mus musculus; assay: Effect on Syvn1 mRNA level in liver of diet-induced obese C57BL/6 mouse model harboring AMPKalpha LS-/- at 200 mg/kg, po for 4 weeks by GO analysis; assay type: functional, organism-based
[32] = Stability in human liver microsomes assessed as […] at 1 uM measured for 60 mins in presence of NADPH by LC-MS/MS analysis; assay type: ADME, Microsome; settings: read-out: QH
[33] = Apparent permeability across apical to basal side in human Caco-2 cells at 21 uM incubated for 2 hrs by LC-MS/MS analysis; assay type: ADME, cell-based
[34] = Stability in human liver microsomes assessed as drug metabolism at 1 uM measured after 5 mins in presence of NADPH by LC-MS/MS analysis; assay type: ADME, Microsome; settings: read-out: Drug metabolism
[35] = tested on: Mus musculus; assay: Downregulation of Ptafr mRNA level in liver of high-fat diet-fed C57BL/6 mouse model at 200 mg/kg, po for 4 weeks by GO analysis; assay type: functional, organism-based

Sequence of AMP-activated protein kinase (AMPK) alpha-1/beta-1/gamma-1 (Homo sapiens) (P54619 whole entry): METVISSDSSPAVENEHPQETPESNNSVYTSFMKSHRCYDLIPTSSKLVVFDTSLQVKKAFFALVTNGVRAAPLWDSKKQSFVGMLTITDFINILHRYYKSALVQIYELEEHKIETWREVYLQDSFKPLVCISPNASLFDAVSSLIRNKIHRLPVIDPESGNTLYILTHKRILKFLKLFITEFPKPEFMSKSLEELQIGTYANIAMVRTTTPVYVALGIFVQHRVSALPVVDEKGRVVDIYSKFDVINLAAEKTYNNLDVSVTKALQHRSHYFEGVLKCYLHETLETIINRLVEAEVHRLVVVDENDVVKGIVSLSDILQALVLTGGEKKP
Sequence of AMP-activated protein kinase (AMPK) alpha-1/beta-1/gamma-1 (Homo sapiens) (Q13131 whole entry partner): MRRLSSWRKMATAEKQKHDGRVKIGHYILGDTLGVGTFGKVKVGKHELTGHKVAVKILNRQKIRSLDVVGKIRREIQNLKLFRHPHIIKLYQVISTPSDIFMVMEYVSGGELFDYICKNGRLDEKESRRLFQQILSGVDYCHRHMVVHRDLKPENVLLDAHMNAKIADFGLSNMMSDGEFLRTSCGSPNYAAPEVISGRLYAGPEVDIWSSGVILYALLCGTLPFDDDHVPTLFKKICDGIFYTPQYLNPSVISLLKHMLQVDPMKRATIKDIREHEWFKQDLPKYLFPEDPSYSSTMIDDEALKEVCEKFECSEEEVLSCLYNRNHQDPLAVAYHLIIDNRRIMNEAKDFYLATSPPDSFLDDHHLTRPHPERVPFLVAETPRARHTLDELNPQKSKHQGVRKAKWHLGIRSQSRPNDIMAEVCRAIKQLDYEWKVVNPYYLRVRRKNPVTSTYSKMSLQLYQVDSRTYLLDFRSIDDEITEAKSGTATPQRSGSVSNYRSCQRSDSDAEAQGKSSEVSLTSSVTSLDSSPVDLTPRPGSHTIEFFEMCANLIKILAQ
Sequence of AMP-activated protein kinase (AMPK) alpha-1/beta-1/gamma-1 (Homo sapiens) (Q9Y478 2-270 partner limits assumed): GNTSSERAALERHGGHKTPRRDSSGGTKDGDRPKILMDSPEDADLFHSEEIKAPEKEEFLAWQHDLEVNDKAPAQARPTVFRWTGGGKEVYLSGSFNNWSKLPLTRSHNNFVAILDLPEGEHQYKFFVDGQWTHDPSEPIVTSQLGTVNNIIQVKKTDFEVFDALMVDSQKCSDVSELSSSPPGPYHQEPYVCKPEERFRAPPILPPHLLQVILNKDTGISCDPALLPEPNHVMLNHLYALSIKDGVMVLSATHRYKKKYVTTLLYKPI

In the case of `CC(=O)OC[C@H]1O[C@@H](n2cnc3c(Nc4cccc(O)c4)ncnc32)[C@H](OC(C)=O)[C@@H]1OC(C)=O`, the Activity [1] is reported as “inactive”, the Activity [2] is reported as 11.93% and the Activity [3] is reported as 2.31. For the same compound, the Activity [4] was “inactive”, the Activity [5] was “Dose-Dependent Effect” and the Activity [6] was 23.69%. The remaining at 3 h, 10 ug/ml [7] was 52%, the Activity [8] was “Active” and the Activity [9] was “inactive”. For the same compound, the Activity [10] was “inactive”, the Activity [11] was 36.2% and the Activity [12] was “Active”. For the same compound, the Activity [13] was “Active”, the remaining at 0.5 h, up to 5 µM [14] was roughly 70% and the Activity [15] was “Active”. For the same compound, the Tmax [16] was 1.5 h, the Activity [17] was “inactive” and the Activity [18] was “Active”. The Activity [19] was “inactive”, the Activity [20] was 27.5% and the Activity [21] was “Active”. The Activity [22] was “inactive”, the Activity [23] was 4.83% and the Activity [24] was 1.25 mmol/L. The Activity [25] was “inactive”, the Activity [26] was “Non-Toxic” and the Activity [27] was “Non-Toxic”. For the same compound, the Activity [28] was “inactive”, the Activity [29] was “inactive” and the Activity [30] was “Active”. For the same compound, the Activity [31] was “inactive”, the hepatic extraction ratio at 1 h, 1 µM [32] was greater than 0.7 and the Papp A→B at 2 h, 21 µM [33] was 8 ×10⁻⁶ cm/s. The metabolised at 5 min, 1 µM [34] was greater than 80% and the Activity [35] was “Active”.
